Results: ChEMBL document CHEMBL1146406, “Inhibition of Bacterial RNA Polymerases. Peptide Metabolites from the Cultures of Streptomyces sp” (J Nat Prod, 1997)
Calls of active or inactive are those of the source. The calls are words filed in the database; no cut-off is given here. Numbered stars: 1 amine (or outer) side, 2 acyl side, 3 side chain; on linkers, the order of the positions; unused ones are H or OH. Bridge positions count the residues as written; N and C are the ends. Square brackets hold non-standard residues; d marks the D form. Peptide text beside a SMILES is read from it. * marks the point of attachment. X2 = C[C@H](Oc1ccc([C@H](N[*:1])C(=O)[*:2])cc1)[C@@]1(/C=C/C(=O)[*:3])CO1; X1 = CC(C)[C@H](O)[C@H](C)C(=O)*; aIle = CC[C@@H](C)[C@H](N)C(=O)O; dNMeF = CN[C@H](Cc1ccccc1)C(=O)O; aThr = C[C@H](O)[C@H](N)C(=O)O

Tests used:
[1] = test system: Staphylococcus aureus; assay: (§1) Inhibition of Staphylococcus aureus RNA polymerase by high throughput filtration assay
[2] = test system: Escherichia coli; assay: (§2) Inhibition of Escherichia coli RNA polymerase by high throughput filtration assay
[3] = as §1
[4] = species: Homo sapiens; assay: Inhibition of human RNA polymerase
[5] = as §2

Structure (SMILES)	Activity [1]	Activity [2]	IC50 [3] [nM]	Activity [4]	IC50 [5] [nM]
CC[C@@H](C)[C@@H]1NC(=O)[C@@H](CC(C)C)NC(=O)[C@H](CC(C)C)NC(=O)[C@H](Cc2c[nH]c3ccccc23)NC(=O)CNC(=O)[C@H](CC(N)=O)NC1=O (cyclo(GWL[dL][aIle]N))	inactive	inactive	–	–	–
CC[C@@H](C)[C@@H]1NC(=O)[C@H](NC(=O)[C@@H](C)[C@@H](O)C(C)C)[C@H](C)OC(=O)[C@H]2COC(=O)CNC(=O)/C=C/[C@@]3(CO3)[C@H](C)Oc3ccc(cc3)[C@H](NC1=O)C(=O)N(C)[C@H](Cc1ccccc1)C(=O)N[C@@H]([C@H](C)O)C(=O)N2 [SALINAMIDE A] (X1-[dT][aIle][X2][dNMeF][aThr][dS]; ester 1-C; linker 3-6 via G)	–	–	500	inactive	500
